Read-outs that look alike come from different tables or passages of the source. One block for each compound: values may come before it.
Assays:
GST-tagged MDM2 = target: T1, GST-tagged MDM2 (Homo sapiens, UniProt Q00987); test: HTRF enzyme inhibition assay, MDM2; type: biochemical; details: compound at 1 μM
T1 construct: purchased Cisbio Co. Ltd
Experimental: The enzymatic assay of test compounds is using the HTRF-based method provided by Cisbio Co. Ltd. In brief, the target compounds to be tested were prepared into samples with a concentration of 1 μM, which was added to GST-tagged MDM2 and HDAC1 proteins, respectively, then biotinylated substrate p53 peptide and HTRF detection reagents were added. The data obtained were processed by the ratio method, and the inhibition rates of MDM2 and HDAC1 were calculated. The detailed experimental procedures are according to the manufacturer’s protocols.

HDAC1 = HDAC1 (Homo sapiens, UniProt Q13547); test: HTRF enzyme inhibition assay, HDAC1; details: for inhibition at 1 µM: read-out: % enzyme inhibition HDAC; for % enzyme inhibition HDAC: compound at 1 μM, HTRF, method names HDAC1 protein
HDAC1, sequence (Q13547 whole entry): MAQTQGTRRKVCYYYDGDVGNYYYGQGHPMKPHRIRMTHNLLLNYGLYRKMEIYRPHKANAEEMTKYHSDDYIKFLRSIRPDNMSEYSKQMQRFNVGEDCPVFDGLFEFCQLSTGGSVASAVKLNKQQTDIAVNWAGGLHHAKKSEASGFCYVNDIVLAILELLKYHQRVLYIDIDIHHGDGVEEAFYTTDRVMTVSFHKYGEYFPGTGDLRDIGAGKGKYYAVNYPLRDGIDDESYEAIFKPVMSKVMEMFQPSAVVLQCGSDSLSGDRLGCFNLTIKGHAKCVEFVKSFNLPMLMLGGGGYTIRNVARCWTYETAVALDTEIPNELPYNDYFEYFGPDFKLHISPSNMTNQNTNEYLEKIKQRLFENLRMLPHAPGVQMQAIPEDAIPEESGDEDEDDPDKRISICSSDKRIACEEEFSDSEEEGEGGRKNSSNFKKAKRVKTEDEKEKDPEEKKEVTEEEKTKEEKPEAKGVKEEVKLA

MCF-7 cells [1] = test: MTT antiproliferative assay, MCF-7
Experimental: (§1) The cytotoxicity assay was performed with MTT method as previously described ([73], [88], [89]).

HCT116 cells = test: MTT antiproliferative assay, HCT116
Experimental: as §1

A431 cells = test: MTT antiproliferative assay, A431
Experimental: as §1

MCF-7 cells [2] = test: Annexin V-FITC/PI double staining, flow cytometry; type: cell-based, human; details: MCF-7, 5.0 μM, 24 h
Experimental: It was reported that the inactivation of HDAC and/or MDM2 could increase the percentage of apoptosis cells ([85]–[87]). Therefore, three methods were applied to assess the effect of MDM2-HDAC dual inhibitor 11b on the apoptosis of MCF-7 cells. […] Subsequently, the annexin V-FITC/propidium iodide (PI) double staining method was carried out to quantitatively detect the effect of compound 11b on cell apoptosis (Figure 9B).
Cells were collected after incubation, then fixed with 75% ice-cold ethanol and stored at -20°C for 1 h. The cells were then harvested with 0.25% trypsin (without EDTA) and centrifuged at 2000 rpm for 5min. Then, the harvested cells were washed with ice-cold PBS twice and resuspended in 500 μL of 1× binding buffer, which was then added to 5 μL of annexin V-FITC and incubated at room temperature in the dark for 15 min. After adding 10 μL of propidium iodide (PI), the cells were incubated at room temperature in the dark. After another 15 min incubation, the cells were collected and analyzed by flow cytometry.

[3] = Homo sapiens, MCF7, read-out: IC50 MCF-7
[4] = Homo sapiens, HCT-116, read-out: IC50 HCT116
[5] = Homo sapiens, A-431, read-out: IC50 A431
[6] = read-out: IC50 MCF-7, MTT, MCF-7 human breast cancer, mean ± standard of at least three replicates
[7] = read-out: IC50 HCT116, MTT, HCT116 human colorectal cancer, mean ± standard of at least three replicates
[8] = read-out: IC50 A431, MTT, A431 human epidermal carcinoma, mean ± standard of at least three replicates

T1 sequence (Q00987 whole entry): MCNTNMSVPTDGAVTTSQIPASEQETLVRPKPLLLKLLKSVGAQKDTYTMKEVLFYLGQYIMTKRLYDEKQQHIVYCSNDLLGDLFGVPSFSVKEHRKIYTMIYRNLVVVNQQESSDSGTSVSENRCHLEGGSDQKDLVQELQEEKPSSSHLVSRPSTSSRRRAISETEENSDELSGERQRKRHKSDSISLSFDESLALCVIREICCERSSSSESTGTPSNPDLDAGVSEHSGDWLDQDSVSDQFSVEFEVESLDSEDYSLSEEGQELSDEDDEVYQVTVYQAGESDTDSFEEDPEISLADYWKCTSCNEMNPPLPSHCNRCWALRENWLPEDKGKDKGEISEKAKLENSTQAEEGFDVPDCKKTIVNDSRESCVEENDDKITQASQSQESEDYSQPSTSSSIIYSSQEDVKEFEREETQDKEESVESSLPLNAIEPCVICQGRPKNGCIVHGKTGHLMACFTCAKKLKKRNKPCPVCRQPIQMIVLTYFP

Compound: O=C(CCCCCCCCC(=O)Nc1ccc([C@@H]2[C@H]3CSCN3[C@]3(C(=O)Nc4cc(Cl)ccc43)[C@H]2C(=O)c2ccccc2)cc1)NO [7s, N^1-(4-((3R,6'S,7'R,7a'S)-6'-benzoyl-6-chloro-2-oxo-1',6',7',7a'-tetrahydro-3'H-spiro[indoline-3,5'-pyrrolo[1,2-c]thiazol]-7'-yl)phenyl)-N^10-hydroxydecanediamide]
inhibition at 1 µM (GST-tagged MDM2): 59% | melting point: 137.7 to 139 °C | inhibition at 1 µM (HDAC1): 68%

Compound: O=C(CCCCCCC(=O)Nc1ccc([C@@H]2[C@H]3CCCN3[C@]3(C(=O)Nc4cc(Cl)ccc43)[C@H]2C(=O)c2ccccc2)cc1)NO [7t, N^1-(4-((1'R,2'S,3R,7a'R)-2'-benzoyl-6-chloro-2-oxo-1',2',5',6',7',7a'-hexahydrospiro[indoline-3,3'-pyrrolizin]-1'-yl)phenyl)-N^8-hydroxyoctanediamide]
inhibition at 1 µM (GST-tagged MDM2): 61% | melting point: 143.4 to 144.5 °C | inhibition at 1 µM (HDAC1): 61%

Compound: O=C(COCC(=O)Nc1ccc([C@@H]2[C@H]3CSCN3[C@]3(C(=O)Nc4cc(Cl)ccc43)[C@H]2C(=O)c2ccccc2)cc1)NO [7u, N-(4-((3R,6'S,7'R,7a'S)-6'-benzoyl-6-chloro-2-oxo-1',6',7',7a'-tetrahydro-3'H-spiro[indoline-3,5'-pyrrolo[1,2-c]thiazol]-7'-yl)phenyl)-2-(2-(hydroxyamino)-2-oxoethoxy)acetamide]
inhibition at 1 µM (GST-tagged MDM2): 61% | melting point: 167.1 to 168.5 °C | IC50 (MCF-7 cells [1]; [3]): 3.47 ± 0.92 µM | IC50 (HCT116 cells; [4]): 4.59 ± 0.91 µM | inhibition at 1 µM (HDAC1): 54% | IC50 (A431 cells; [5]): 3.64 ± 0.56 µM

Compound: O=C(CCCCC(=O)Nc1ccc(C(=O)Nc2ccc([C@@H]3[C@H]4CSCN4[C@]4(C(=O)Nc5cc(Cl)ccc54)[C@H]3C(=O)c3ccccc3)cc2)cc1)NO [7v, N^1-(4-((4-((3R,6'S,7'R,7a'S)-6'-benzoyl-6-chloro-2-oxo-1',6',7',7a'-tetrahydro-3'H-spiro[indoline-3,5'-pyrrolo[1,2-c]thiazol]-7'-yl)phenyl)carbamoyl)phenyl)-N^6-hydroxyadipamide]
inhibition at 1 µM (GST-tagged MDM2): 58% | melting point: 175.5 to 176.6 °C | inhibition at 1 µM (HDAC1): 53%

Compound: Nc1ccccc1NC(=O)CCC(=O)Nc1ccc([C@@H]2[C@H]3CSCN3[C@]3(C(=O)Nc4ccccc43)[C@H]2C(=O)c2ccccc2)cc1 [9a, N^1-(2-aminophenyl)-N^4-(4-((3R,6'S,7'R,7a'S)-6'-benzoyl-2-oxo-1',6',7',7a'-tetrahydro-3'H-spiro[indoline-3,5'-pyrrolo[1,2-c]thiazol]-7'-yl)phenyl)succinamide]
inhibition at 1 µM (GST-tagged MDM2): 50% | melting point: 149.1 to 150.2 °C | inhibition at 1 µM (HDAC1): 37%

Compound: Nc1ccccc1NC(=O)CCCCCCC(=O)Nc1ccc([C@@H]2[C@H]3CSCN3[C@]3(C(=O)Nc4ccccc43)[C@H]2C(=O)c2ccccc2)cc1 [9b, N^1-(2-aminophenyl)-N^8-(4-((3R,6'S,7'R,7a'S)-6'-benzoyl-2-oxo-1',6',7',7a'-tetrahydro-3'H-spiro[indoline-3,5'-pyrrolo[1,2-c]thiazol]-7'-yl)phenyl)octanediamide]
inhibition at 1 µM (GST-tagged MDM2): 45% | melting point: 131.7 to 132.9 °C | inhibition at 1 µM (HDAC1): 45%

Compound: Nc1ccccc1NC(=O)CCCCC(=O)Nc1ccc([C@@H]2[C@H]3CSCN3[C@]3(C(=O)Nc4cc(Cl)ccc43)[C@H]2C(=O)c2ccccc2)cc1 [9c, N^1-(2-aminophenyl)-N^6-(4-((3R,6'S,7'R,7a'S)-6'-benzoyl-6-chloro-2-oxo-1',6',7',7a'-tetrahydro-3'H-spiro[indoline-3,5'-pyrrolo[1,2-c]thiazol]-7'-yl)phenyl)adipamide]
inhibition at 1 µM (GST-tagged MDM2): 57% | melting point: 148.9 to 150 °C | inhibition at 1 µM (HDAC1): 40%

Compound: Nc1ccccc1NC(=O)CCCCCCC(=O)Nc1ccc([C@@H]2[C@H]3CSCN3[C@]3(C(=O)Nc4cc(Cl)ccc43)[C@H]2C(=O)c2ccccc2)cc1 [9d, N^1-(2-aminophenyl)-N^8-(4-((3R,6'S,7'R,7a'S)-6'-benzoyl-6-chloro-2-oxo-1',6',7',7a'-tetrahydro-3'H-spiro[indoline-3,5'-pyrrolo[1,2-c]thiazol]-7'-yl)phenyl)octanediamide]
inhibition at 1 µM (GST-tagged MDM2): 56% | melting point: 145.2 to 146.4 °C | inhibition at 1 µM (HDAC1): 55%

Compound: Nc1ccccc1NC(=O)CCCCCCCCC(=O)Nc1ccc([C@@H]2[C@H]3CSCN3[C@]3(C(=O)Nc4cc(Cl)ccc43)[C@H]2C(=O)c2ccccc2)cc1 [9e, N^1-(2-aminophenyl)-N^10-(4-((3R,6'S,7'R,7a'S)-6'-benzoyl-6-chloro-2-oxo-1',6',7',7a'-tetrahydro-3'H-spiro[indoline-3,5'-pyrrolo[1,2-c]thiazol]-7'-yl)phenyl)decanediamide]
inhibition at 1 µM (GST-tagged MDM2): 56% | melting point: 132.4 to 133.9 °C | inhibition at 1 µM (HDAC1): 47%

Compound: O=C(CCCCC(=O)N1CCC(C(=O)Nc2ccc([C@@H]3[C@H]4CSCN4[C@]4(C(=O)Nc5cc(Cl)ccc54)[C@H]3C(=O)c3ccccc3)cc2)CC1)NO [11a, N-(4-((3R,6'S,7'R,7a'S)-6'-benzoyl-6-chloro-2-oxo-1',6',7',7a'-tetrahydro-3'H-spiro[indoline-3,5'-pyrrolo[1,2-c]thiazol]-7'-yl)phenyl)-1-(6-(hydroxyamino)-6-oxohexanoyl)piperidine-4-carboxamide]
inhibition at 1 µM (GST-tagged MDM2): 62% | melting point: 170.3 to 171.5 °C | IC50 (MCF-7 cells [1]; [3]): 4.48 ± 1.46 µM | IC50 (HCT116 cells; [4]): 4.32 ± 0.9 µM | inhibition at 1 µM (HDAC1): 70% | IC50 (A431 cells; [5]): 4.62 ± 0.78 µM

inhibition at 1 µM (GST-tagged MDM2): 52% | melting point: 126.7 to 127.9 °C | inhibition at 1 µM (HDAC1): 65%
Compound: CN1C[C@@H](c2ccc(NC(=O)CCCCCCC(=O)NO)cc2)[C@H](C(=O)c2ccccc2)[C@@]12C(=O)Nc1cc(Cl)ccc12 [13a, N^1-(4-((3R,3'S,4'R)-3'-benzoyl-6-chloro-1'-methyl-2-oxospiro[indoline-3,2'-pyrrolidin]-4'-yl)phenyl)-N^8-hydroxyoctanediamide]

inhibition at 1 µM (GST-tagged MDM2): 67% | melting point: 146.5 to 147.6 °C | IC50 (MCF-7 cells [1]; [3]): 5.71 ± 1.03 µM | IC50 (HCT116 cells; [4]): 8.45 ± 2.44 µM | inhibition at 1 µM (HDAC1): 61% | IC50 (A431 cells; [5]): 6.99 ± 0.92 µM
Compound: O=C(CCCCCCC(=O)Nc1ccc([C@@H]2[C@@H](c3ccccc3)N[C@]3(C(=O)Nc4cc(Cl)ccc43)[C@H]2C(=O)c2ccccc2)cc1)NO [15a, N^1-(4-((3R,3'S,4'R,5'S)-3'-benzoyl-6-chloro-2-oxo-5'-phenylspiro[indoline-3,2'-pyrrolidin]-4'-yl)phenyl)-N^8-hydroxyoctanediamide]

IC50 (MCF-7 cells [1]; [3]): 9.75 ± 2.97 µM | IC50 (HCT116 cells; [4]): 11 ± 2.42 µM | IC50 (A431 cells; [5]): 9.72 ± 1.66 µM
Compound: COc1ccc(C2=N[C@@H](c3ccc(Cl)cc3)[C@@H](c3ccc(Cl)cc3)N2C(=O)N2CCNC(=O)C2)c(OC(C)C)c1 [Nutlin-3, reference compound]
apoptotic cells (MCF-7 cells [2]): 28.23%

Compound: O=C(CCCCCCC(=O)Nc1ccccc1)NO [SAHA, vorinostat]
apoptotic cells (MCF-7 cells [2]): 7.56%

Compound: O=C(CCCCCCC(=O)Nc1ccc([C@@H]2[C@H]3CSCN3[C@]3(C(=O)Nc4cc(Cl)ccc43)[C@H]2C(=O)c2ccccc2)cc1)NO [compound 7f, N^1-(4-((3R,6'S,7'R,7a'S)-6'-benzoyl-6-chloro-2-oxo-1',6',7',7a'-tetrahydro-3'H-spiro[indoline-3,5'-pyrrolo[1,2-c]thiazol]-7'-yl)phenyl)-N^8-hydroxyoctanediamide]
inhibition at 1 µM (GST-tagged MDM2): 65% | melting point: 150.2 to 151.2 °C | inhibition at 1 µM (HDAC1): 64%

Compound: N^1-(4-((3R,6'S,7'R,7a'S)-6-chloro-6'-(3-methoxybenzoyl)-2-oxo-1',6',7',7a'-tetrahydro-3'H-spiro[indoline-3,5'-pyrrolo[1,2-c]thiazol]-7'-yl)phenyl)-N^6-hydroxyadipamide [7w]
% enzyme inhibition MDM2 (GST-tagged MDM2): 60% | IC50 (MCF-7 cells [1]; [6]): 3.77 ± 0.93 µM | IC50 (HCT116 cells; [7]): 3.91 ± 0.84 µM | % enzyme inhibition HDAC (HDAC1): 69% | IC50 (A431 cells; [8]): 3.32 ± 0.68 µM

Compound: N^1-(4-((3R,6'S,7'R,7a'S)-6-chloro-6'-(4-fluorobenzoyl)-2-oxo-1',6',7',7a'-tetrahydro-3'H-spiro[indoline-3,5'-pyrrolo[1,2-c]thiazol]-7'-yl)phenyl)-N^6-hydroxyadipamide [7x]
% enzyme inhibition MDM2 (GST-tagged MDM2): 62% | IC50 (MCF-7 cells [1]; [6]): 2.9 ± 0.56 µM | IC50 (HCT116 cells; [7]): 3.45 ± 0.57 µM | % enzyme inhibition HDAC (HDAC1): 73% | IC50 (A431 cells; [8]): 3.43 ± 0.73 µM

Source: paper PMC9386376, “Discovery of spirooxindole-derived small-molecule compounds as novel HDAC/MDM2 dual inhibitors and investigation of their anticancer activity” (Frontiers in Oncology, 2022)
